Experimental data published in PubChem BioAssay (NCI).
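Step 1: Grow cells in 96-well plates. Step 2: Expose to compound for 48 hours at 5 concentrations. Step 3: Interpolate endpoints linearly; if unreached, use highest concentration. At the GI50, growth is halved. TGI denotes the concentration required for complete inhibition of growth.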

Legend:
Assay in all cases: NCI-60 cell line screen, 48 h
SK-MEL-2 melanoma = test system: SK-MEL-2 melanoma
SR leukemia = test system: SR leukemia
HCT-116 colon = test system: HCT-116 colon
NCI-H23 lung = test system: NCI-H23 lung
MDA-MB-231 breast = test system: MDA-MB-231 breast
MALME-3M melanoma = test system: MALME-3M melanoma
SF-539 CNS = test system: SF-539 CNS
IGROV1 ovarian = test system: IGROV1 ovarian
NCI/ADR-RES ovarian = test system: NCI/ADR-RES ovarian
HT29 colon = test system: HT29 colon

Row | Compound | TGI (SK-MEL-2 melanoma) [µM] | TGI (SR leukemia) [µM] | TGI (HCT-116 colon) [µM] | TGI (NCI-H23 lung) [µM] | TGI (MDA-MB-231 breast) [µM] | TGI (MALME-3M melanoma) [µM] | TGI (SF-539 CNS) [µM] | TGI (IGROV1 ovarian) [µM] | TGI (NCI/ADR-RES ovarian) [µM] | TGI (HT29 colon) [µM] | GI50 (SK-MEL-2 melanoma) [µM] | GI50 (SR leukemia) [µM] | GI50 (HCT-116 colon) [µM] | GI50 (NCI-H23 lung) [µM] | GI50 (MDA-MB-231 breast) [µM] | GI50 (SF-539 CNS) [µM] | GI50 (IGROV1 ovarian) [µM] | GI50 (NCI/ADR-RES ovarian) [µM] | GI50 (HT29 colon) [µM] | GI50 (MALME-3M melanoma) [µM]
1 | COc1ccc2c(c1)N(CCC1CCCCN1C)c1ccccc1S2 (centres undefined) | 29.1 | 20.9 | 27.2 | 35.2 | 23.6 | 33.7 | 74.4 | 26.5 | 25.4 | 18.9 | – | – | – | – | – | – | – | – | – | –
2 | CSc1ccc2c(c1)C(=O)c1c-2n(CCCN=[N+]=[N-])c(=O)c2cc([N+](=O)[O-])ccc12 | > 100 | 5.8 | > 100 | > 100 | > 100 | > 38.9 | > 100 | > 100 | > 100 | > 100 | 66.7 | 0.2 | 1.69 | 3.48 | > 100 | 1.46 | 8.86 | 3.15 | 4.3 | –
3 | COc1ccc2c(c1)CC[C@@H]1[C@@H]2CC[C@]2(C)c3c(cc(C(=O)c4ccccc4)c4sccc34)C[C@@H]12 | > 100 | > 100 | > 100 | > 100 | > 100 | > 100 | > 100 | > 100 | > 100 | > 100 | > 100 | > 100 | > 100 | > 100 | > 100 | > 100 | > 100 | > 100 | > 100 | > 100
4 | O=C1[C@H](c2ccccc2)C2c3ccccc3CCN12 (some centres undefined) | > 100 | > 100 | > 100 | > 100 | > 100 | > 100 | > 100 | > 100 | > 100 | > 100 | > 100 | > 100 | > 100 | > 100 | > 100 | > 100 | > 100 | > 100 | > 100 | > 100
5 | O=C(Nc1cccc2ccccc12)c1cc2ccccc2cc1O | 4.69 | 9.73 | 12 | 8.84 | 4.46 | 3.9 | 12.8 | 7.27 | 8.07 | 12.4 | 2.14 | 2.57 | 2.85 | 1.9 | 1.77 | 3.28 | 1.46 | 2.17 | 3.55 | 0.562
6 | NS(=O)(=O)c1ccc(NCc2cnc3ccccc3c2)cc1 | > 100 | > 100 | > 100 | > 100 | > 100 | > 100 | > 100 | > 100 | > 100 | > 100 | – | – | – | – | – | – | – | – | – | –
7 | Cc1cccc2c(=O)c3c(sc12)c(NCCN)nc1ccccc13 | 2.15 | 1.85 | 1.43 | 1.96 | 1.41 | 1.59 | 1.77 | 1.26 | 1.95 | 1.61 | 0.995 | 0.719 | 0.759 | 0.87 | 0.664 | 0.917 | 0.582 | 0.909 | 0.819 | 0.841
8 | Cc1ccc(S(=O)(=O)N2C/C(=C\c3cc(F)cc(F)c3)C(=O)/C(=C/c3cc(F)cc(F)c3)C2)cc1 | 2.84 | 0.296 | 0.513 | 4.14 | 0.867 | 0.647 | 2.16 | 1.4 | 12.7 | 0.544 | 0.972 | 0.0364 | 0.162 | 1.14 | 0.285 | 0.71 | 0.371 | 0.447 | 0.215 | 0.256
9 | O=C(O)C#Cc1ccc([N+](=O)[O-])cc1 | > 100 | > 100 | > 100 | > 100 | > 100 | > 100 | > 100 | > 100 | > 100 | > 100 | – | – | – | – | – | – | – | – | – | –
10 | CCCNNC(=O)c1ccc(CNC(=O)/C=C/c2ccccc2)cc1 | – | > 100 | 0.527 | > 23.5 | > 100 | > 100 | > 100 | 1.1 | – | > 100 | 0.199 | 0.18 | 0.0547 | 0.228 | 0.348 | 0.191 | 0.185 | 0.111 | 0.12 | 0.0475
11 | N=C(N)c1ccc(-c2ccc(-c3ccco3)o2)cc1F | 3.72 | 5.4 | 3.49 | – | 4.01 | 3.38 | 3.25 | 6.02 | 10.9 | 3.3 | 2.09 | 1.97 | 1.69 | – | 1.6 | 1.6 | 2.13 | 2.66 | 1.29 | 1.74
12 | CCOCC[P+](c1ccccc1)(c1ccccc1)c1ccccc1 | 47.9 | > 100 | > 100 | 80.9 | > 100 | 61.4 | > 100 | 63.7 | > 100 | 96.3 | 18.6 | 12.1 | 14.7 | 17.5 | 22.6 | 23.2 | 13.5 | > 100 | 16.2 | 10.3
13 | Cc1cc(Cl)ccc1Nc1nc(C(F)(F)F)ccc1C(=O)N/N=C/c1c(Cl)cccc1Cl | 1.33 | > 100 | – | > 100 | – | 2.5 | 4.07 | 6.29 | > 100 | > 100 | 0.272 | 0.263 | 0.287 | 0.489 | 0.249 | 0.638 | 0.357 | 0.445 | 0.443 | 0.494
14 | COc1ccc(/C=C/C(=O)c2ccc(NC(=O)CSc3nnc(-c4cc(OC)c(OC)c(OC)c4)o3)cc2)cc1 | 4.82 | 4.01 | – | 3.97 | 3.5 | 3.45 | 3.03 | – | 7.03 | 3.62 | 1.79 | 1.86 | – | 1.88 | 1.82 | 1.64 | – | 2.42 | 1.83 | 1.68
